In patent US10279023B2, “Mucin-associated surface protein as a vaccine against chagas disease” (BOARD OF REGENTS, THE UNIVERSITY OF TEXAS SYSTEM, priority 2013, dated 2019):

Tests used:
[1] = test system: IL-4, IL-10, IL-12, IL-17A, and IFN-gamma; test: Evaluation of cytokines (Mouse Inflammatory Cytokines Multi-analyte ELISArray) in immunized, challenged mice; format: in vivo; conditions: without the aid of any additional adjuvants
Protocol: (§1) C3H/HeNsd female mice (6-8 weeks old) were separated in five groups (4 mice/group). The immunizations were performed via intraperitoneal (i.p.) injection. One control group was immunized with phosphate buffer saline (PBS, placebo). Two control groups for the adjuvants were given 0.9% aluminum hydroxide (AIOH) and KLH at 10 μg/mouse. Two experimental groups were administered 20 μg/mouse of MASPsyn alone and combined with 0.9% aluminum hydroxide, respectively. A total of 3 immunizations every 10-15 days were administered.
Four weeks post-infection, the blood was collected by tail-bleeding and a pool of serum from each experimental group was obtained as described above. Cytokines were measured using Mouse Inflammatory Cytokines Multi-analyte ELISArray Kit. FIG. 2 illustrates cytokine profiles of immunized mice following parasite challenge. Anti-inflammatory (IL-4 and IL-10) and proinflammatory (IFN-γ, IL-12, and IL-17) cytokines were assayed in triplicate by ELISA four weeks after the last immunization and approximately two weeks after the challenge. Each bar represents the mean value±SEM (n=4 animals per group) for each treatment.

[2] = test system: T. cruzi Y strain trypomastigotes; test: Challenge - parasitemia and survival of immunized mice; format: in vivo, Trypanosoma cruzi; conditions: without the aid of any additional adjuvants
Protocol: as §1
Ten days after last immunization mice were inoculated via intraperitoneal injection with 1×10^5 trypomastigote Y strain, the parasitemia and survival were monitored. The parastemia were evaluated every day for the first 12 days then every third day for a total of 21 days. FIG. 1 illustrates the resulting parasitemia and survival for each of the control and experimental groups.

C3H/HeNsd female mice = test: Evaluation of the humoral immune response (serum antibody titers by ELISA after immunization); format: in vivo; conditions: immunized mice, without the aid of any additional adjuvants
Protocol: as §1
Ten days after the last immunization blood was collected by tail bleeding and serum was separated from blood by centrifugation at 2,000 rpm for 10 min. The serum antibody titers were determined by an ELISA. Human Chagasic and normal serum were also tested for antibody titers against MASPsyn.

Q: Which results are given for “DAENPGGEVFNDNKKGLSRV (listed as Trypanosoma cruzi) [MASPsyn]”?
A: cytokine (e.g., IL-4, IL-10, IL-12, IL-17A, and IFN-gamma) production [1]: able to stimulate; survivability of immunized-infected mice [2]: increase survivability; antibody production (C3H/HeNsd female mice): able to stimulate
